Reference: PubChem BioAssay (NCI)
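Where inhibition never reached the appropriate level, the endpoint shown equals the highest concentration tested. Otherwise, values were interpolated linearly from a five-concentration, 48-hour dose response in 96-well plates. GI50 is the concentration that inhibits growth by half. Definition used: TGI = concentration required for complete inhibition of growth.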

Experiments:
Test in all cases: NCI-60 cell line screen, 48 h
SK-MEL-2 melanoma = test system: SK-MEL-2 melanoma
DU-145 prostate = test system: DU-145 prostate
KM12 colon = test system: KM12 colon
COLO 205 colon = test system: COLO 205 colon
OVCAR-4 ovarian = test system: OVCAR-4 ovarian
MDA-MB-231 breast = test system: MDA-MB-231 breast
NCI-H460 lung = test system: NCI-H460 lung
786-0 renal = test system: 786-0 renal
A498 renal = test system: A498 renal
OVCAR-5 ovarian = test system: OVCAR-5 ovarian
U251 CNS = test system: U251 CNS
PC-3 prostate = test system: PC-3 prostate
K-562 leukemia = test system: K-562 leukemia
TK-10 renal = test system: TK-10 renal
MDA-MB-435 = test system: MDA-MB-435
HL-60(TB) leukemia = test system: HL-60(TB) leukemia
LOX IMVI melanoma = test system: LOX IMVI melanoma
HS 578T breast = test system: HS 578T breast
NCI/ADR-RES ovarian = test system: NCI/ADR-RES ovarian
A549 NSCLC = test system: A549 NSCLC
RXF 393 renal = test system: RXF 393 renal
CCRF-CEM leukemia = test system: CCRF-CEM leukemia
MOLT-4 leukemia = test system: MOLT-4 leukemia
UACC-62 melanoma = test system: UACC-62 melanoma
HCC-2998 colon = test system: HCC-2998 colon
BT-549 breast = test system: BT-549 breast
IGROV1 ovarian = test system: IGROV1 ovarian
NCI-H226 lung = test system: NCI-H226 lung
SW-620 colon = test system: SW-620 colon
SK-MEL-5 melanoma = test system: SK-MEL-5 melanoma
CAKI-1 renal = test system: CAKI-1 renal
OVCAR-3 ovarian = test system: OVCAR-3 ovarian
SF-268 CNS = test system: SF-268 CNS
T-47D breast = test system: T-47D breast
SNB-75 CNS = test system: SNB-75 CNS
SK-OV-3 ovarian = test system: SK-OV-3 ovarian
MCF7 breast = test system: MCF7 breast
UACC-257 melanoma = test system: UACC-257 melanoma
EKVX NSCLC = test system: EKVX NSCLC
NCI-H23 lung = test system: NCI-H23 lung
MALME-3M melanoma = test system: MALME-3M melanoma
NCI-H522 lung = test system: NCI-H522 lung
HT29 colon = test system: HT29 colon
UO-31 renal = test system: UO-31 renal
SN12C renal = test system: SN12C renal
HCT-15 colon = test system: HCT-15 colon
RPMI-8226 leukemia = test system: RPMI-8226 leukemia
SR leukemia = test system: SR leukemia
SF-539 CNS = test system: SF-539 CNS
SK-MEL-28 melanoma = test system: SK-MEL-28 melanoma
HCT-116 colon = test system: HCT-116 colon
M14 melanoma = test system: M14 melanoma
OVCAR-8 ovarian = test system: OVCAR-8 ovarian
SNB-19 CNS = test system: SNB-19 CNS
ACHN renal = test system: ACHN renal
HOP-62 NSCLC = test system: HOP-62 NSCLC
HOP-92 NSCLC = test system: HOP-92 NSCLC
SF-295 CNS = test system: SF-295 CNS

SMILES: CSC1=C(C(=O)Nc2ccc(Cl)cc2)C(N)=NC1=O
- TGI (SK-MEL-2 melanoma): > 100 µM
- TGI (DU-145 prostate): > 100 µM
- TGI (KM12 colon): > 100 µM
- TGI (COLO 205 colon): > 100 µM
- TGI (OVCAR-4 ovarian): > 100 µM
- TGI (MDA-MB-231 breast): > 100 µM
- TGI (NCI-H460 lung): > 100 µM
- TGI (786-0 renal): > 100 µM
- TGI (A498 renal): > 100 µM
- TGI (OVCAR-5 ovarian): > 100 µM
- TGI (U251 CNS): > 100 µM
- TGI (PC-3 prostate): > 100 µM
- TGI (K-562 leukemia): > 100 µM
- TGI (TK-10 renal): > 100 µM
- TGI (MDA-MB-435): > 100 µM
- TGI (HL-60(TB) leukemia): > 100 µM
- TGI (LOX IMVI melanoma): > 100 µM
- TGI (HS 578T breast): > 100 µM
- TGI (NCI/ADR-RES ovarian): > 100 µM
- TGI (A549 NSCLC): > 100 µM
- TGI (RXF 393 renal): > 100 µM
- TGI (CCRF-CEM leukemia): > 100 µM
- TGI (MOLT-4 leukemia): > 100 µM
- TGI (UACC-62 melanoma): > 100 µM
- TGI (HCC-2998 colon): > 100 µM
- TGI (BT-549 breast): > 100 µM
- TGI (IGROV1 ovarian): > 100 µM
- TGI (NCI-H226 lung): > 100 µM
- TGI (SW-620 colon): > 100 µM
- TGI (SK-MEL-5 melanoma): > 100 µM
- TGI (CAKI-1 renal): > 100 µM
- TGI (OVCAR-3 ovarian): > 100 µM
- TGI (SF-268 CNS): > 100 µM
- TGI (T-47D breast): > 100 µM
- TGI (SNB-75 CNS): > 100 µM
- TGI (SK-OV-3 ovarian): > 100 µM
- TGI (MCF7 breast): > 100 µM
- TGI (UACC-257 melanoma): > 100 µM
- TGI (EKVX NSCLC): > 100 µM
- TGI (NCI-H23 lung): > 100 µM
- TGI (MALME-3M melanoma): > 100 µM
- TGI (NCI-H522 lung): > 100 µM
- TGI (HT29 colon): > 100 µM
- TGI (UO-31 renal): > 100 µM
- TGI (SN12C renal): > 100 µM
- TGI (HCT-15 colon): > 100 µM
- TGI (RPMI-8226 leukemia): > 100 µM
- TGI (SR leukemia): > 100 µM
- TGI (SF-539 CNS): > 100 µM
- TGI (SK-MEL-28 melanoma): > 100 µM
- TGI (HCT-116 colon): > 100 µM
- TGI (M14 melanoma): > 100 µM
- TGI (OVCAR-8 ovarian): > 100 µM
- TGI (SNB-19 CNS): > 100 µM

SMILES: c1ccc(Cn2cc3c(c2-c2ccccc2)CCc2cnoc2-3)cc1
- GI50 (SK-MEL-2 melanoma): 11.5 µM
- TGI (SK-MEL-2 melanoma): > 100 µM
- GI50 (DU-145 prostate): 20.1 µM
- TGI (DU-145 prostate): > 100 µM
- GI50 (KM12 colon): 3.27 µM
- TGI (KM12 colon): 47 µM
- GI50 (COLO 205 colon): 2.9 µM
- TGI (COLO 205 colon): 11.1 µM
- GI50 (OVCAR-4 ovarian): 10.7 µM
- TGI (OVCAR-4 ovarian): > 100 µM
- GI50 (MDA-MB-231 breast): 5.68 µM
- TGI (MDA-MB-231 breast): > 100 µM
- GI50 (NCI-H460 lung): 3.41 µM
- TGI (NCI-H460 lung): 22.1 µM
- GI50 (786-0 renal): 6.7 µM
- TGI (786-0 renal): 69.1 µM
- GI50 (A498 renal): 7.33 µM
- TGI (A498 renal): > 100 µM
- GI50 (OVCAR-5 ovarian): 33 µM
- TGI (OVCAR-5 ovarian): > 100 µM
- GI50 (U251 CNS): 3.65 µM
- TGI (U251 CNS): > 100 µM
- GI50 (PC-3 prostate): 6.13 µM
- TGI (PC-3 prostate): > 100 µM
- GI50 (K-562 leukemia): 2.14 µM
- TGI (K-562 leukemia): 7.31 µM
- GI50 (TK-10 renal): 8.22 µM
- TGI (TK-10 renal): > 100 µM
- GI50 (MDA-MB-435): 1.89 µM
- TGI (MDA-MB-435): 7.18 µM
- GI50 (HL-60(TB) leukemia): 1.75 µM
- TGI (HL-60(TB) leukemia): 4.09 µM
- GI50 (LOX IMVI melanoma): 4.23 µM
- TGI (LOX IMVI melanoma): > 100 µM
- GI50 (HS 578T breast): 3.88 µM
- TGI (HS 578T breast): 26.4 µM
- GI50 (ACHN renal): 9.36 µM
- TGI (ACHN renal): > 100 µM
- GI50 (NCI/ADR-RES ovarian): 2.75 µM
- TGI (NCI/ADR-RES ovarian): 9.53 µM
- GI50 (A549 NSCLC): 5.73 µM
- TGI (A549 NSCLC): > 100 µM
- GI50 (RXF 393 renal): 4.94 µM
- TGI (RXF 393 renal): 61.2 µM
- GI50 (CCRF-CEM leukemia): 3.59 µM
- TGI (CCRF-CEM leukemia): > 100 µM
- GI50 (MOLT-4 leukemia): 2.19 µM
- TGI (MOLT-4 leukemia): 6.98 µM
- GI50 (UACC-62 melanoma): 4.48 µM
- TGI (UACC-62 melanoma): > 100 µM
- GI50 (BT-549 breast): 6.63 µM
- TGI (BT-549 breast): 56.1 µM
- GI50 (IGROV1 ovarian): 5.51 µM
- TGI (IGROV1 ovarian): > 100 µM
- GI50 (NCI-H226 lung): 14.7 µM
- TGI (NCI-H226 lung): > 100 µM
- GI50 (SW-620 colon): 3.15 µM
- TGI (SW-620 colon): 53.9 µM
- GI50 (HOP-62 NSCLC): 6.76 µM
- TGI (HOP-62 NSCLC): > 100 µM
- GI50 (SK-MEL-5 melanoma): 2.79 µM
- TGI (SK-MEL-5 melanoma): 12.8 µM
- GI50 (CAKI-1 renal): 4.4 µM
- TGI (CAKI-1 renal): > 100 µM
- GI50 (OVCAR-3 ovarian): 3.73 µM
- TGI (OVCAR-3 ovarian): 24.7 µM
- GI50 (HOP-92 NSCLC): 18 µM
- TGI (HOP-92 NSCLC): > 100 µM
- GI50 (SF-268 CNS): 8.05 µM
- TGI (SF-268 CNS): > 100 µM
- GI50 (T-47D breast): 4.5 µM
- TGI (T-47D breast): > 100 µM
- GI50 (SNB-75 CNS): 3.27 µM
- TGI (SNB-75 CNS): 63.4 µM
- GI50 (SK-OV-3 ovarian): 7.36 µM
- TGI (SK-OV-3 ovarian): > 100 µM
- GI50 (MCF7 breast): 3.44 µM
- TGI (MCF7 breast): > 100 µM
- GI50 (UACC-257 melanoma): 17.7 µM
- TGI (UACC-257 melanoma): > 100 µM
- GI50 (EKVX NSCLC): 5.53 µM
- TGI (EKVX NSCLC): > 100 µM
- GI50 (SF-295 CNS): 3.16 µM
- TGI (SF-295 CNS): 31.5 µM
- GI50 (NCI-H23 lung): 4.92 µM
- TGI (NCI-H23 lung): 69.2 µM
- GI50 (MALME-3M melanoma): 3.13 µM
- TGI (MALME-3M melanoma): 30.1 µM
- GI50 (NCI-H522 lung): 3.04 µM
- TGI (NCI-H522 lung): > 100 µM
- GI50 (HT29 colon): 3.11 µM
- TGI (HT29 colon): 33.4 µM
- GI50 (UO-31 renal): 7.65 µM
- TGI (UO-31 renal): > 100 µM
- GI50 (SN12C renal): 7.83 µM
- TGI (SN12C renal): > 100 µM
- GI50 (HCT-15 colon): 3.72 µM
- TGI (HCT-15 colon): > 100 µM
- GI50 (RPMI-8226 leukemia): 3.1 µM
- TGI (RPMI-8226 leukemia): > 100 µM
- GI50 (SR leukemia): 1.96 µM
- TGI (SR leukemia): 9.28 µM
- GI50 (SF-539 CNS): 5.34 µM
- TGI (SF-539 CNS): 38.9 µM
- GI50 (SK-MEL-28 melanoma): 6.58 µM
- TGI (SK-MEL-28 melanoma): > 100 µM
- GI50 (HCT-116 colon): 3.27 µM
- TGI (HCT-116 colon): > 100 µM
- GI50 (M14 melanoma): 4.89 µM
- TGI (M14 melanoma): > 100 µM
- GI50 (OVCAR-8 ovarian): 8.05 µM
- TGI (OVCAR-8 ovarian): > 100 µM
- GI50 (SNB-19 CNS): 4.24 µM
- TGI (SNB-19 CNS): > 100 µM
